This note sets out measurements from patent publication US12178791B2, “Haloallylamine sulfone derivative inhibitors of lysyl oxidases and uses thereof” (Syntara Limited, priority 2018, dated 2024).

What all share (type): biochemical
One experiment addresses Bovine LOX (Bos taurus (Bovine), UniProt P33072). Kind of experiment: LOX inhibition, Amplex Red oxidation assay. To be noted: 30 min preincubation at 37 °C, putrescine substrate. The text has this: Lysyl oxidase (LOX) is an extracellular copper dependent enzyme which oxidizes peptidyl lysine and hydroxylysine residues in collagen and lysine residues in elastin to produce peptidyl alpha-aminoadipic-delta-semialdehydes. […] There are five LOX family members; these are LOX, LOXL1, LOXL2, LOXL3 and LOXL4. LOX and LOXL family members can be acquired as recombinant active proteins from commercial sources, or extracted from animal tissues like bovine aorta, tendons, pig skin; or prepared from cell cultures. The inhibitory effects of the compounds of the present invention were tested against the given LOX-LOXL preparation using a method based on the detection of hydrogen peroxide with an Amplex Red oxidation assay (Zhou et al. A stable nonfluorescent derivative of resorufin for the fluorometric determination of trace hydrogen peroxide: applications in detecting the activity of phagocyte NADPH oxidase and other oxidases. Anal. Biochem. 1997; 253, 162-168). The assay was developed using either 384 or 96 well format. Briefly, in a standard black, clear bottom 384 well plate assay 25 μL of a dilution of any of the isoenzymes and orthologues in 1.2 M urea, 50 mM sodium borate buffer (pH 8.2) were added into each well in the presence of 1 μM mofegiline and 0.5 mM pargyline (to inhibit SSAO and MAO-B and MAO-A, respectively; not necessary if the enzyme is from a recombinant or purified form). […] Twenty five μL of a reaction mixture containing twice the KM concentration of putrescine (Sigma Aldrich, e.g. 20 mM for LOX, or 10 mM for LOXL2 and LOXL3), 120 μM Amplex Red (Sigma Aldrich) and 1.5 U/mL horseradish peroxidase (Sigma Aldrich) prepared in 1.2 M urea, 50 mM sodium borate buffer (pH 8.2) were then added to the corresponding wells. The above volumes were doubled in the case of 96 wells plate. The fluorescence (RFU) was read every 2.5 min for 30 min at […] 37° C., excitation 565 nm and emission 590 (Optima; BMG labtech). The slope of the kinetics for each well was calculated using MARS data analysis software (BMG labtech) and this value was used to deduce the IC50 value (Dotmatics).

A further experiment concerns the target LOXL2 (Homo sapiens (Human), UniProt Q9Y4K0). Kind of experiment: LOXL2 inhibition, Amplex Red oxidation assay. To be noted: 30 min preincubation at 37 °C, putrescine substrate. From the text:
Lysyl oxidase (LOX) is an extracellular copper dependent enzyme which oxidizes peptidyl lysine and hydroxylysine residues in collagen and lysine residues in elastin to produce peptidyl alpha-aminoadipic-delta-semialdehydes. […] There are five LOX family members; these are LOX, LOXL1, LOXL2, LOXL3 and LOXL4. LOX and LOXL family members can be acquired as recombinant active proteins from commercial sources, or extracted from animal tissues like bovine aorta, tendons, pig skin; or prepared from cell cultures. The inhibitory effects of the compounds of the present invention were tested against the given LOX-LOXL preparation using a method based on the detection of hydrogen peroxide with an Amplex Red oxidation assay (Zhou et al. A stable nonfluorescent derivative of resorufin for the fluorometric determination of trace hydrogen peroxide: applications in detecting the activity of phagocyte NADPH oxidase and other oxidases. Anal. Biochem. 1997; 253, 162-168). The assay was developed using either 384 or 96 well format. Briefly, in a standard black, clear bottom 384 well plate assay 25 μL of a dilution of any of the isoenzymes and orthologues in 1.2 M urea, 50 mM sodium borate buffer (pH 8.2) were added into each well in the presence of 1 μM mofegiline and 0.5 mM pargyline (to inhibit SSAO and MAO-B and MAO-A, respectively; not necessary if the enzyme is from a recombinant or purified form). Test compounds were dissolved in DMSO and tested in a Concentration Response Curve (CRC) with 11 data points, typically in the micromolar or nanomolar range after incubation with the enzyme for 30 min at 37° C. Twenty five μL of a reaction mixture containing twice the KM concentration of putrescine (Sigma Aldrich, e.g. 20 mM for LOX, or 10 mM for LOXL2 and LOXL3), 120 μM Amplex Red (Sigma Aldrich) and 1.5 U/mL horseradish peroxidase (Sigma Aldrich) prepared in 1.2 M urea, 50 mM sodium borate buffer (pH 8.2) were then added to the corresponding wells. The above volumes were doubled in the case of 96 wells plate. The fluorescence (RFU) was read every 2.5 min for 30 min at […] 37° C., excitation 565 nm and emission 590 (Optima; BMG labtech). The slope of the kinetics for each well was calculated using MARS data analysis software (BMG labtech) and this value was used to deduce the IC50 value (Dotmatics).

For experiment [1], the target named is Human recombinant SSAO/VAP-1 (Homo sapiens (Human), UniProt Q16853). Description: Inhibition of human recombinant SSAO/VAP-1. To be noted: 30 min preincubation at 37 °C, benzylamine 600 μM; read-out: SSAO/VAP-1 Activity IC50. As to the method:
Human recombinant SSAO/VAP-1 amine oxidase activity was determined using the coupled colorimetric method as described for monoamine oxidase, copper-containing amine oxidases and related enzymes (Holt A. and Palcic M., A peroxidase-coupled continuous absorbance plate-reader assay for flavin monoamine oxidases, copper-containing amine oxidases and related enzymes. Nat Protoc 2006; 1: 2498-2505). Briefly, a cloned cDNA template corresponding to residues 34-763 of human SSAO/VAP-1, and incorporating a mouse Ig kappa (κ) signal sequence, N-terminal flag epitope tag and tobacco etch virus (TEV) cleavage site, was assembled in a mammalian expression vector (pLO-CMV) by Geneart AG. This vector containing human SSAO/VAP-1 residues was transfected into CHO-Kl glycosylation mutant cell line, Lec 8. A clone stably expressing human SSAO/VAP-1 was isolated and cultured in large scale. Active human SSAO/VAP-1 was purified and recovered using immunoaffinity chromatography. This was used as the source for SSAO/VAP-1 activity. A high-throughput colorimetric assay was developed using either 96 or 384 well format. Briefly, in a standard 96 well plate assay 50 μL of purified human SSAO/VAP-1 (0.25 μg/mL) in 0.1 M sodium phosphate buffer (pH 7.4) was added into each well. Test compounds were dissolved in DMSO and tested in a Concentration Response Curve (CRC) with 4-11 data points, typically in the micromolar or nanomolar range after incubation with human SSAO/VAP-1 for 30 min at 37° C. After 30 min incubation, 50 μL of the reaction mixture containing 600 μM benzylamine (Sigma Aldrich), 120 μM Amplex Red (Sigma Aldrich) and 1.5 U/mL horseradish peroxidase (Sigma Aldrich) prepared in 0.1 M sodium phosphate buffer (pH 7.4) were added to the corresponding well. The fluorescence unit (RFU) was read every 2.5 min for 30 min at 37° C. excitation 565 nm and emission 590 (Optima; BMG labtech). The slope of the kinetics for each well was calculated using MARS data analysis software (BMG labtech) and this value was used to deduce the IC50 value (Dotmatics).

SMILES strings stand for the structures. Counter-ions that a name gives are not always drawn.

LOXL2, sequence (Q9Y4K0 26-774): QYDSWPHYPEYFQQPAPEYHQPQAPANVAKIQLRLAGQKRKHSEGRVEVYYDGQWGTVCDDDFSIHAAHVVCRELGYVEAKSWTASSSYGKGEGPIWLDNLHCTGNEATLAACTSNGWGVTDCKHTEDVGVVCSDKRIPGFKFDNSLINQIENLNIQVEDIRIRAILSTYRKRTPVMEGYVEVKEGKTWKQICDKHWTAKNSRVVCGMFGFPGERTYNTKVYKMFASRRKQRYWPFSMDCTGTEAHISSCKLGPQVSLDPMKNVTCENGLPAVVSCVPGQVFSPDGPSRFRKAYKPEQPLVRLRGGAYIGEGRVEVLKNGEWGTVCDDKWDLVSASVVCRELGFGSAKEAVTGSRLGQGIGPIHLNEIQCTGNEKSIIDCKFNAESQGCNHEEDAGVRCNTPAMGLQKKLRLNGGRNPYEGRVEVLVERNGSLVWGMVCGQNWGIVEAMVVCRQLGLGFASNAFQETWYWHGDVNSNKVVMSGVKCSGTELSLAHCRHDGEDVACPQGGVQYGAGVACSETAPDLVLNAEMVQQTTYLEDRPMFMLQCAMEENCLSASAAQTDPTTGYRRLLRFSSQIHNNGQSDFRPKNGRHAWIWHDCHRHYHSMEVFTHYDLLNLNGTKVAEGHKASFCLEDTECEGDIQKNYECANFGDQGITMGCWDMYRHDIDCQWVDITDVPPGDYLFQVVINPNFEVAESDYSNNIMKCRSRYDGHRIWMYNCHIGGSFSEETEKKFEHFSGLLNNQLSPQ
Bovine LOX, sequence (P33072 170-418): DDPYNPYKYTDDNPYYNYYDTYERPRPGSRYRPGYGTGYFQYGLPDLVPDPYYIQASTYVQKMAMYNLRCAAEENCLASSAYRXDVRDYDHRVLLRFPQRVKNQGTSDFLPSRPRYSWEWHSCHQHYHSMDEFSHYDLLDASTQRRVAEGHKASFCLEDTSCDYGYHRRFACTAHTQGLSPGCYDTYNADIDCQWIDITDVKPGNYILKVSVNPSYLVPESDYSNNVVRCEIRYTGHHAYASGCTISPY
Human recombinant SSAO/VAP-1, sequence (Q16853 34-763): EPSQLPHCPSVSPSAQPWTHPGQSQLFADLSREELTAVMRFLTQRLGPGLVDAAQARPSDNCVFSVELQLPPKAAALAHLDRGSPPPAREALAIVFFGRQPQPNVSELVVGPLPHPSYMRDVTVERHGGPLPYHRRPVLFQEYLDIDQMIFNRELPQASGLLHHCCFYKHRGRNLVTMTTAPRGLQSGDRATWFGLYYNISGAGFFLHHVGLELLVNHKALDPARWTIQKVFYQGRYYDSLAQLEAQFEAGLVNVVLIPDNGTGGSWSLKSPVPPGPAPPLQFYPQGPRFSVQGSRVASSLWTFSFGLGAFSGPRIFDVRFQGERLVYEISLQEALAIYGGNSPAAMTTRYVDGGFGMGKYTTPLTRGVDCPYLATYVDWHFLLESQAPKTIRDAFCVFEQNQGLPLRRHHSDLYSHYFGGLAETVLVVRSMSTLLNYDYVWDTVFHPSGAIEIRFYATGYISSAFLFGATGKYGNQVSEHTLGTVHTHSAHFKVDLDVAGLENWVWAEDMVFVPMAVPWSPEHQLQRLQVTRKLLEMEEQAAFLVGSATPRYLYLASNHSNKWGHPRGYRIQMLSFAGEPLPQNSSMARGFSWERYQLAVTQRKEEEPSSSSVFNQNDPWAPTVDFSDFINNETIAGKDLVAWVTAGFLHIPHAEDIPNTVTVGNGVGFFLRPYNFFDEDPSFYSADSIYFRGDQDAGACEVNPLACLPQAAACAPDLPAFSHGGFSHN

Consider `NC/C=C(\F)CS(=O)(=O)c1ccccc1-c1ccccc1` [Compound 20, (Z)-4-(biphenyl-2-ylsulfonyl)-3-fluorobut-2-en-1-amine hydrochloride], for which the IC50 against Bovine LOX is less than 10 µM; at LOXL2 it was less than 1 µM.
With `CC(C)c1ccccc1S(=O)(=O)C/C(F)=C/CN` [Compound 21, (Z)-3-fluoro-4-(2-isopropylphenylsulfonyl)but-2-en-1-amine hydrochloride], the figures for the IC50 at Bovine LOX and on LOXL2 were less than 10 µM and less than 1 µM, respectively.
The like results for `COc1ccccc1S(=O)(=O)C/C(F)=C/CN` [Compound 22, (Z)-3-fluoro-4-(2-methoxyphenylsulfonyl)but-2-en-1-amine hydrochloride] were, in that order, less than 10 µM and less than 1 µM.
The corresponding values for `NC/C=C(\F)CS(=O)(=O)c1ccc2ccccc2c1` [Compound 24, (Z)-3-fluoro-4-(naphthalen-2-ylsulfonyl)but-2-en-1-amine hydrochloride] are less than 10 µM and less than 1 µM.
`NC/C=C(\F)CS(=O)(=O)c1ccc(Cl)cc1Cl` [Compound 25, (Z)-4-(2,4-dichlorophenylsulfonyl)-3-fluorobut-2-en-1-amine hydrochloride]: the results for the IC50 on Bovine LOX and against LOXL2 were less than 10 µM and less than 1 µM, respectively.
The like results for `NC/C=C(\F)CS(=O)(=O)c1cccc(Cl)c1` [Compound 26, (Z)-4-(3-chlorophenylsulfonyl)-3-fluorobut-2-en-1-amine hydrochloride] were, in that order, less than 10 µM and less than 1 µM.
The corresponding values for `NC/C=C(\F)CS(=O)(=O)c1ccc(Cl)cc1` [Compound 27, (Z)-4-(4-chlorophenylsulfonyl)-3-fluorobut-2-en-1-amine hydrochloride] are less than 10 µM and less than 1 µM.
The like results for `CC(C)c1ccc(S(=O)(=O)C/C(F)=C/CN)nc1` [Compound 34, (Z)-3-fluoro-4-(5-isopropylpyridin-2-ylsulfonyl)but-2-en-1-amine dihydrochloride] were, in that order, less than 10 µM and less than 1 µM.
Regarding `Cc1ccc(S(=O)(=O)C/C(F)=C/CN)nc1` [Compound 35, (Z)-3-fluoro-4-(5-methylpyridin-2-ylsulfonyl)but-2-en-1-amine dihydrochloride], the values for the IC50 against Bovine LOX and on LOXL2 were less than 10 µM and less than 1 µM, respectively.
The corresponding values for `Cc1cccc(S(=O)(=O)C/C(F)=C/CN)n1` [Compound 36, (Z)-3-fluoro-4-(6-methylpyridin-2-ylsulfonyl)but-2-en-1-amine dihydrochloride] are less than 10 µM and less than 1 µM.
The corresponding values for `NC/C=C(\F)CS(=O)(=O)c1ccccc1F` [Compound 37, (Z)-3-fluoro-4-(2-fluorophenylsulfonyl)but-2-en-1-amine hydrochloride] are less than 10 µM and less than 1 µM.
For `NC/C=C(\F)CS(=O)(=O)c1ccc(F)cc1` [Compound 39, (Z)-3-fluoro-4-(4-fluorophenylsulfonyl)but-2-en-1-amine hydrochloride], the IC50 against Bovine LOX was less than 10 µM; at LOXL2, less than 1 µM.
The like results for `Cc1ccccc1S(=O)(=O)C/C(F)=C/CN` [Compound 40, (Z)-3-fluoro-4-(o-tolylsulfonyl)but-2-en-1-amine hydrochloride] were, in that order, less than 10 µM and less than 1 µM.
The like results for `Cc1cccc(S(=O)(=O)C/C(F)=C/CN)c1` [Compound 41, (Z)-3-fluoro-4-(m-tolylsulfonyl)but-2-en-1-amine hydrochloride] were, in that order, less than 10 µM and less than 1 µM.
The like results for `Cc1ccc(S(=O)(=O)C/C(F)=C/CN)cc1` [Compound 42, (Z)-3-fluoro-4-(p-tolylsulfonyl)but-2-en-1-amine hydrochloride] were, in that order, less than 10 µM and less than 1 µM.
In the case of `Cc1cccnc1S(=O)(=O)C/C(F)=C/CN` [Compound 43, (Z)-3-fluoro-4-(3-methylpyridin-2-ylsulfonyl)but-2-en-1-amine dihydrochloride], the IC50 is less than 10 µM on Bovine LOX and less than 1 µM at LOXL2.
The corresponding values for `Cc1cc(S(=O)(=O)C/C(F)=C/CN)ccn1` [Compound 44, (Z)-3-fluoro-4-(2-methylpyridin-4-ylsulfonyl)but-2-en-1-amine dihydrochloride] are less than 10 µM and less than 1 µM.
The like results for `Cc1ncccc1S(=O)(=O)C/C(F)=C/CN` [Compound 47, (Z)-3-fluoro-4-(2-methylpyridin-3-ylsulfonyl)but-2-en-1-amine dihydrochloride] were, in that order, less than 10 µM and less than 1 µM.
The corresponding values for `Cc1ccncc1S(=O)(=O)C/C(F)=C/CN` [Compound 48, (Z)-3-fluoro-4-(4-methylpyridin-3-ylsulfonyl)but-2-en-1-amine dihydrochloride] are less than 10 µM and less than 1 µM.
With `CC(C)c1ccc(S(=O)(=O)C/C(F)=C/CN)cn1` [Compound 49, (Z)-3-fluoro-4-(6-isopropylpyridin-3-ylsulfonyl)but-2-en-1-amine dihydrochloride], the IC50 was less than 10 µM against Bovine LOX and less than 1 µM on LOXL2.
The corresponding values for `Cc1[nH]c2c(S(=O)(=O)C/C(F)=C/CN)cccc2c1C` [Compound 52, (Z)-4-((2,3-dimethyl-1H-indol-7-yl)sulfonyl)-3-fluorobut-2-en-1-amine hydrochloride] are less than 10 µM and less than 1 µM.
`[2H]c1nc2c(S(=O)(=O)C/C(F)=C/CN)c([2H])c([2H])c([2H])c2c([2H])c1[2H]` [Compound 53, (Z)-3-fluoro-4-((quinolin-8-yl-d6)sulfonyl)but-2-en-1-amine dihydrochloride]: in experiment [1], the IC50 was greater than 30 µM.
